Substitutions are numbered along the chain they refer to. “Also recorded” adds a separate entry of the source.
B1: dhdO (dsDNA)
DNA 1: GAGTCGCGGCGGCGCGCCGGATCCGGGCTGTCATTGTCAAAAGTTATCAGATAACCTGAAAAGTAGGCCTATAATCGGCGC
DNA 2: GCGCCGATTATAGGCCTACTTTTCAGGTTATCTGATAACTTTTGACAATGACAGCCCGGATCCGGCGCGCCGCCGCGACTC
B2: biotinylated dhdO (dsDNA)
DNA 1: B1 DNA 1
DNA 2: B1 DNA 2
B3: biotinylated dhdO-1 (dsDNA)
DNA 1: B1 DNA 1 with G43T
DNA 2: B1 DNA 2 with C39A

What was measured:
binding of DhdR to dhdO = assay: Analysis of DhdR effector by electrophoretic mobility shift assays; parameters: species or system Achromobacter denitrificans NBRC 15125; settings: 40 mM compound, 70 nM DhdR, dhdO target DNA, EMSA, FIG. 2
Method: DhdR is incubated with different compounds (D-2-HG, L-2-HG, D-malate, D-lactate, glutarate, 2-ketoglutarate, or pyruvate) respectively. Then, the target DNA fragment dhdO is added. The influence on the binding capacity of DhdR and the target DNA fragment dhdO in the presence of the different compounds is analyzed through electrophoresis separation, staining, and imaging.
(§1) The dhdO nucleotide fragment obtained in step (2) above was diluted to 100 nM using binding buffer, and the purified DhdR protein was diluted to 2000 nM. 70 nM purified DhdR protein was first incubated with 40 mM different compounds (D-2-HG, L-2-HG, D-malate, D-lactate, glutarate, 2-ketoglutarate, or pyruvate) at 30° C. for 15 minutes in 18 μL binding buffer. Subsequently, 2 μL of 100 nM dhdO was added and incubated at 30° C. for another 30 min. 10 μL of the sample was analyzed by electrophoresis with 6% native polyacrylamide at 170 V for 45 min on ice. The gel was then stained with SYBR Green I for 30 min avoiding light and photographed by gel imager. […] DhdR can bind to dhdO in the absence of D-2-HG. However, when D-2-HG is present, DhdR will be dissociated from dhdO.

DhdR [1] = molecular target: T1, DhdR (Achromobacter denitrificans NBRC 15125); assay: EMSA; 70 nM DhdR, 10 nM dhdO, 30 C; 40 mM D-2-HG inhibits binding; L-2-HG, D-malate, D-lactate, glutarate, 2-ketoglutarate, pyruvate do not; settings: tags: His6 (pETDuet-1, E. coli BL21(DE3))
T1 chain: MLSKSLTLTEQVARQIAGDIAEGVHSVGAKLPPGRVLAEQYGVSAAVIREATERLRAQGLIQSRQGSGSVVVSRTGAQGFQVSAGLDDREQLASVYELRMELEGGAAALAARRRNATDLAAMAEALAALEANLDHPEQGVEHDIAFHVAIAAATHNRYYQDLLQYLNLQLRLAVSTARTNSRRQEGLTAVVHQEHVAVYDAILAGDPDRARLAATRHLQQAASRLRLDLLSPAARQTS
Method: as §1

DhdR [2] = molecular target: T1, DhdR; assay: AlphaScreen-type bead luminescence, HBS-P pH 7.4; D-2-HG dissociates complex, LOD 0.8 uM, range about 2-50 uM; settings: tags: His6 (pETDuet-1, E. coli BL21(DE3)); label: 5'-biotin
Method: According to the method of detecting the luminescence signal described in (2), a gradient D-2-HG solution dissolved in HBS-P buffer was used and mixed with 5 μL of 1 nM biotinylated dhdO fragment, 0.3 nM DhdR protein, donor beads, and acceptor beads. The luminescence signal was detected to plot the dose-response curves.
The combination of the 1 nM biotinylated dhdO fragment, 0.3 nM DhdR protein, 20 μg/mL donor beads, and 20 μg/mL acceptor beads was named as D-2-HG biosensor BD2HG-0, with a limit of detection of 0.8 μM and a detection range of about 2-50 μM.

DhdR [3] = molecular target: T1, DhdR; assay: AlphaScreen-type bead luminescence, HBS-P pH 7.4; D-2-HG dissociates complex, LOD 0.08 uM, range about 0.3-20 uM; settings: tags: His6 (pETDuet-1, E. coli BL21(DE3)); label: 5'-biotin
Method: 5 μL biotinylated dhdO-1 fragment, 5 μL DhdR protein and 5 μL solution containing D-2-HG were added into a white 384-well plate, mixed evenly by the oscillation function of a microplate reader, and incubated in dark at room temperature for 30 minutes. Then, 5 μL acceptor beads (20 μg/mL) were added and incubated in dark at room temperature for 30 minutes. Finally, 5 μL donor beads (20 μg/mL) were added and incubated in dark at room temperature for 60 minutes. The luminescence signal was measured by EnSight Multimode Plate Reader. The excitation wavelength was 680 nm and the detection wavelength was 520-620 nm. The background signal without a D-2-HG biosensor was deducted at each emission wavelength.
According to the method of detecting the luminescence signal described in (2), a gradient D-2-HG solution dissolved in HBS-P buffer was used and mixed with 5 μL of 1 nM biotinylated dhdO-1 fragment, 0.3 nM DhdR protein, donor beads, and acceptor beads. The luminescence signal was detected to plot the dose-response curves.

Molecule	effect on the binding of DhdR to dhdO (binding of DhdR to dhdO)	also measured
O=C(O)CC[C@H](O)C(=O)O [L-2-HG, L-2-hydroxyglutarate]	could not interfere with the binding of DhdR to dhdO	–
O=C(O)C[C@@H](O)C(=O)O [D-malate]	could not interfere with the binding of DhdR to dhdO	–
O=C(O)CC[C@@H](O)C(=O)O [D-2-HG, D-2-Hydroxyglutarate]	prevents the binding of DhdR and the target DNA fragment dhdO; also recorded: could inhibit the binding of DhdR to dhdO	–
O=C(O)CCC(=O)C(=O)O [2-ketoglutarate]	could not interfere with the binding of DhdR to dhdO	–
C[C@@H](O)C(=O)O [D-lactate]	could not interfere with the binding of DhdR to dhdO	–
B1	–	binding result (DhdR [1]): binds
B2	–	binding result (DhdR [2]): binds
B3	–	binding result (DhdR [3]): binds
